How the values were obtained:
[1] = target: DNA topoisomerase 2-alpha (Homo sapiens) (UniProt P11388); experiment: Inhibition of human DNA topoisomerase 2alpha assessed as relaxation of supercoiled pBR322 DNA at 100 uM after 30 mins using ethidium bromide staining by agarose gel electrophoresis
[2] = target: DNA topoisomerase 2-alpha (Homo sapiens) (UniProt P11388); experiment: Inhibition of human DNA topoisomerase 2alpha assessed as relaxation of supercoiled pBR322 DNA at 20 uM after 30 mins using ethidium bromide staining by agarose gel electrophoresis
[3] = target: T1, DNA topoisomerase 1 (Homo sapiens) (UniProt P11387); experiment: Inhibition of human recombinant DNA topoisomerase 1 assessed as relaxation of supercoiled pBR322 DNA at 100 uM after 30 mins using ethidium bromide staining by agarose gel electrophoresis
T1 sequence (whole entry): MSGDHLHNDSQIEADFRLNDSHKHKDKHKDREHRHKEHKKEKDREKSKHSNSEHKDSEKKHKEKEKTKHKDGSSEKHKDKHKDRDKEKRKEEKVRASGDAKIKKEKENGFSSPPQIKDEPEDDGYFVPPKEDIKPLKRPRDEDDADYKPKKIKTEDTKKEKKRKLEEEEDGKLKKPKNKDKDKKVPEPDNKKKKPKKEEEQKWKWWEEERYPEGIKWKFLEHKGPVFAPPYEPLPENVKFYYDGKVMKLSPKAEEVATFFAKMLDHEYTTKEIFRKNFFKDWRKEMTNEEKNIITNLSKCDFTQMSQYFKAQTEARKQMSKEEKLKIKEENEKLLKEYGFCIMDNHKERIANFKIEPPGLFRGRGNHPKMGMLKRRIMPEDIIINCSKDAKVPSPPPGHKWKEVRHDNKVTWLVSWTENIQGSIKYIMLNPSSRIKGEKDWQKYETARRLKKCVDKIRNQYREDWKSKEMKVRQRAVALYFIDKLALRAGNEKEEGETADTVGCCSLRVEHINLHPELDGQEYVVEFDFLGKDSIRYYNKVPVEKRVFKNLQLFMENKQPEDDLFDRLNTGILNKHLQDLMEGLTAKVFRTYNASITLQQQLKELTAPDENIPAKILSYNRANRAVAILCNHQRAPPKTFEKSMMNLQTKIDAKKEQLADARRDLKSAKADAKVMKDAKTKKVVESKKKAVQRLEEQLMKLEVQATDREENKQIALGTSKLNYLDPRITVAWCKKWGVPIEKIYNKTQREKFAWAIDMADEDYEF

[4] = tested on: DU-145; experiment: Cytotoxicity against human DU145 cells after 2 days by CCK8 assay; type: functional, cell-based; conditions: DU-145, 48 h
[5] = tested on: HCT-15; experiment: Cytotoxicity against human HCT15 cells after 2 days by CCK8 assay; type: functional, cell-based; conditions: HCT-15, 48 h
[6] = tested on: T47D; experiment: Cytotoxicity against human T47D cells after 2 days by CCK8 assay; type: functional, cell-based; conditions: 48 h
[7] = Cytotoxicity against human MCF10A cells after 2 days by CCK8 assay; type: cell-based; conditions: MCF-10A, 48 h
[8] = target: T1, DNA topoisomerase 1 (Homo sapiens); experiment: Inhibition of human recombinant DNA topoisomerase 1 assessed as relaxation of supercoiled pBR322 DNA at 20 uM after 30 mins using ethidium bromide staining by agarose gel electrophoresis

Sequence of DNA topoisomerase 2-alpha (Homo sapiens) (P11388 whole entry): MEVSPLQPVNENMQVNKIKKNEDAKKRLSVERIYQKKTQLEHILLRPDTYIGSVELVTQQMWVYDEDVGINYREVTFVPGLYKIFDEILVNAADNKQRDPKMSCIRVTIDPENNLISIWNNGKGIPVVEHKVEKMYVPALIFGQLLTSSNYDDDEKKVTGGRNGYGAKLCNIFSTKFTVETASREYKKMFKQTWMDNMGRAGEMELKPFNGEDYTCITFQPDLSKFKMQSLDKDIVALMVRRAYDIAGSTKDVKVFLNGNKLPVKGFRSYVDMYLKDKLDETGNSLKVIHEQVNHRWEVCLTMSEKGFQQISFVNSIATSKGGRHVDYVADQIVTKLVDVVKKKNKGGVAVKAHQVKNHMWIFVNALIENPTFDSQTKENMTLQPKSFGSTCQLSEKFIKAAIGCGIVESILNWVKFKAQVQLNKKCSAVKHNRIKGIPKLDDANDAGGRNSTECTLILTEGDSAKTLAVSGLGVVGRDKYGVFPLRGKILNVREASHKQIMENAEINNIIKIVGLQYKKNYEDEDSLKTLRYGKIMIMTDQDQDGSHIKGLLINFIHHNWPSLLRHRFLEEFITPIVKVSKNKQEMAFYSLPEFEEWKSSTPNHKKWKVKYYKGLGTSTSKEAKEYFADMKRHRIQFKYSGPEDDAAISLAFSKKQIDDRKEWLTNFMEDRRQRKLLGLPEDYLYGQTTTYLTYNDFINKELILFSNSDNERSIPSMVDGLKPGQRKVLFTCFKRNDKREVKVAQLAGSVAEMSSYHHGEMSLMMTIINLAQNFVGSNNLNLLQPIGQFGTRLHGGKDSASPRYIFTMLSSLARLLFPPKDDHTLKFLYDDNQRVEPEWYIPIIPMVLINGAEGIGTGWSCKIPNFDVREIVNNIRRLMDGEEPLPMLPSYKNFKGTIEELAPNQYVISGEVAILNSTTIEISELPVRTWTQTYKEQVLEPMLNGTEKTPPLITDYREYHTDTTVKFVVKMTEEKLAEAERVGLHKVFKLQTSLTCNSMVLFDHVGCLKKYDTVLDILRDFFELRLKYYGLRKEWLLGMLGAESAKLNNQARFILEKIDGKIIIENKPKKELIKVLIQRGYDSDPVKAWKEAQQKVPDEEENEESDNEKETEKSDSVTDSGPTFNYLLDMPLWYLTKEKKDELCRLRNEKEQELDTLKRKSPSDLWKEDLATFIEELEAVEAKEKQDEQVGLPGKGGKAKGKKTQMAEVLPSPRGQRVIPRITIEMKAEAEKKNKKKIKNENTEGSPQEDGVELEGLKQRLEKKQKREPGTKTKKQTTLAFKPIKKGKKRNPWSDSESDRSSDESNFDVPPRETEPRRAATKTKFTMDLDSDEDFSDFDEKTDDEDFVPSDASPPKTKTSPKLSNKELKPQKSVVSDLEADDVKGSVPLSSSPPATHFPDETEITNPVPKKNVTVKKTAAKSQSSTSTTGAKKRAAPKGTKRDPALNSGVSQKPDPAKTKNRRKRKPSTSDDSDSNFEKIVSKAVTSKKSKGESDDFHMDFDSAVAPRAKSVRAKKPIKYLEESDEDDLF

inhibition [1] [%] | inhibition [2] [%] | inhibition [3] [%] | inhibition [8] [%] | SMILES | IC50 [4] [µM] | IC50 [5] [µM] | IC50 [6] [µM] | IC50 [7] [µM]
84.7 | 10 | 3.6 |  | Oc1ccccc1-c1cc(-c2ccccc2)nc2c1COc1ccccc1-2 | 5.01 | 3.47 | 3.82 | 8.2
88.6 | 33.7 | 2.4 |  | Oc1cccc(-c2cc(-c3ccccc3O)nc3c2COc2ccccc2-3)c1 | 6.37 | 2.11 | 3.42 | 4.61
78 | 47.9 | 2.4 |  | Oc1ccccc1-c1cc(-c2ccccc2O)c2c(n1)-c1ccccc1OC2 | 4.69 | 3.58 | 2.76 | 8.76
 |  |  |  | COc1cccc2c1C(=O)c1c(O)c3c(c(O)c1C2=O)C[C@@](O)(C(=O)CO)C[C@@H]3O[C@H]1C[C@H](N)[C@H](O)[C@H](C)O1 [DOXORUBICIN] | 0.95 |  | 1.88 | 1.23
91.7 | 25.8 | 1 |  | Oc1ccc(-c2cc(-c3cccs3)nc3c2COc2ccccc2-3)cc1 | 0.83 | 1.52 | 1.21 | 6.24
92.1 | 4.8 | 3.3 |  | Oc1cccc(-c2cc(-c3ccccc3O)c3c(n2)-c2ccccc2OC3)c1 | 0.63 | 1.01 | 2.17 | 3.42
93 | 1.8 | 5.3 |  | Oc1ccc(-c2cc(-c3cccc(O)c3)c3c(n2)-c2ccccc2OC3)cc1 | 2.06 | 2.98 | 2.37 | 4.64
 |  |  |  | CC[C@@]1(O)C(=O)OCc2c1cc1n(c2=O)Cc2cc3ccccc3nc2-1 [CAMPTOTHECIN] |  | 0.3 | 0.08 | 0.97
93.6 | 8 | 7.6 |  | Oc1ccc(-c2cc(-c3ccccc3O)c3c(n2)-c2ccccc2OC3)cc1 | 1.95 | 1.66 | 2.09 | 2.74
94.8 | 10.9 | 1.5 |  | Oc1cccc(-c2cc(-c3ccccc3)nc3c2COc2ccccc2-3)c1 | 2.33 | 3.03 | 0.76 | 8.52
 |  |  |  | COc1cc([C@@H]2c3cc4c(cc3[C@@H](O[C@@H]3O[C@@H]5CO[C@@H](C)O[C@H]5[C@H](O)[C@H]3O)[C@H]3COC(=O)[C@H]23)OCO4)cc(OC)c1O [ETOPOSIDE] | 13.1 | 2.6 | 0.94 | 10.1
95.6 | 6.8 | 0.5 |  | Oc1ccc(-c2cc(-c3ccco3)nc3c2COc2ccccc2-3)cc1 | 4.45 | 1.23 | 0.85 | 6.88
100 | 18.1 | 0 |  | Oc1ccc(-c2cc(-c3ccsc3)nc3c2COc2ccccc2-3)cc1 | 0.39 | 1.66 | 1.9 | 5.83
94.1 | 16.1 | 2.1 |  | Oc1ccc(-c2cc(-c3ccccc3)nc3c2COc2ccccc2-3)cc1 | 1.56 | 15.1 | 1.35 | 6.35
91.5 | 17 | 3.9 |  | Oc1ccccc1-c1cc(-c2ccco2)nc2c1COc1ccccc1-2 | 2.45 | 2.01 | 2.98 | 7.98
93.5 | 7.6 | 1.8 |  | Oc1ccc(-c2cc(-c3cccc(O)c3)nc3c2COc2ccccc2-3)cc1 | 0.81 | 0.55 | 0.67 | 2.42
97.2 | 10.3 | 2.8 |  | Oc1ccc(-c2cc(-c3ccc(O)cc3)c3c(n2)-c2ccccc2OC3)cc1 | 3.8 | 0.69 | 0.78 | 1.9
99 | 41.2 | 6.6 |  | Oc1cccc(-c2cc(-c3cccs3)nc3c2COc2ccccc2-3)c1 | 0.86 | 3.17 | 2.24 | 6.44
100 | 31.7 | 68.6 | 0 | Oc1cccc(-c2cc(-c3ccsc3)nc3c2COc2ccccc2-3)c1 | 3 | 1.22 | 1.18 | 7.26
89.3 | 63.2 | 3.8 |  | Oc1ccc(-c2cc(-c3ccccc3O)nc3c2COc2ccccc2-3)cc1 | > 50 | 1.56 | 1.29 | 24.2
84.9 | 0 | 1.4 |  | Oc1cccc(-c2cc(-c3ccco3)nc3c2COc2ccccc2-3)c1 | 3.1 | 4.77 | 3.59 | 8.8
100 | 29.7 | 3.3 |  | Oc1ccccc1-c1cc(-c2ccsc2)nc2c1COc1ccccc1-2 | 0.74 | 3.17 | 2.74 | 7.17
93.3 | 1.9 | 4.3 |  | Oc1cccc(-c2cc(-c3cccc(O)c3)c3c(n2)-c2ccccc2OC3)c1 | 1.58 | 4.11 | 1.77 | 5.81
95.7 | 4.8 | 3.5 |  | Oc1ccccc1-c1cc(-c2cccs2)nc2c1COc1ccccc1-2 | 5.97 | 1.94 | 2.72 | 5.64
 |  | 0 |  | c1ccc(-c2cc(-c3ccccc3)c3c(n2)-c2ccccc2OC3)cc1 |  |  | 14.2 | 6.58

— ChEMBL document CHEMBL3611987, “Design and synthesis of conformationally constrained hydroxylated 4-phenyl-2-aryl chromenopyridines as novel and selective topoisomerase II-targeted antiproliferative agents” (Bioorg Med Chem, 2015)
